# Test system: 966289-007-R4-J1-PDC complex spheroid viability
# Assay: Anticancer human tumor 966289-007-R4-J1-PDC patient-derived pancreatic adenocarcinoma cell line growth inhibition [GQUAD]
# Conditions: for IC50: curve of first compound; for viability, T/C: stronger effect = lower value
# In short: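 Viability of tumor cells grown as complex spheroids with endothelial and stromal cells, exposed to drug combinations. Top concentration at or near clinical Cmax (else 10 microM), diluted in half-log increments.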
# [1] = second compound 0.0316 µM, first compound 0.0316 µM
# [2] = second compound 0.0316 µM, first compound 0.1 µM
# [3] = second compound 0.0316 µM, first compound 0.316 µM
# [4] = second compound 0.0316 µM, first compound 1 µM
# [5] = second compound 0.0316 µM, first compound 3.16 µM
# [6] = second compound 0.0316 µM, first compound 10 µM
# [7] = second compound 0.1 µM, first compound 0.0316 µM
# [8] = second compound 0.1 µM, first compound 0.1 µM
# [9] = second compound 0.1 µM, first compound 0.316 µM
# [10] = second compound 0.1 µM, first compound 1 µM
# [11] = second compound 0.1 µM, first compound 3.16 µM
# [12] = second compound 0.1 µM, first compound 10 µM
# [13] = second compound 0.316 µM, first compound 0.0316 µM
# [14] = second compound 0.316 µM, first compound 0.1 µM
# [15] = second compound 0.316 µM, first compound 0.316 µM
# [16] = second compound 0.316 µM, first compound 1 µM
# [17] = second compound 0.316 µM, first compound 3.16 µM
# [18] = second compound 0.316 µM, first compound 10 µM
# [19] = second compound 1 µM, first compound 0.0316 µM
# [20] = second compound 1 µM, first compound 0.1 µM
# [21] = second compound 1 µM, first compound 0.316 µM
# [22] = second compound 1 µM, first compound 1 µM
# [23] = second compound 1 µM, first compound 3.16 µM
# [24] = second compound 1 µM, first compound 10 µM
# [25] = second compound 3.16 µM, first compound 0.0316 µM
# [26] = second compound 3.16 µM, first compound 0.1 µM
# [27] = second compound 3.16 µM, first compound 0.316 µM
# [28] = second compound 3.16 µM, first compound 1 µM
# [29] = second compound 3.16 µM, first compound 3.16 µM
# [30] = second compound 3.16 µM, first compound 10 µM
# [31] = second compound 10 µM, first compound 0.0316 µM
# [32] = second compound 10 µM, first compound 0.1 µM
# [33] = second compound 10 µM, first compound 0.316 µM
# [34] = second compound 10 µM, first compound 1 µM
# [35] = second compound 10 µM, first compound 3.16 µM
# [36] = second compound 10 µM, first compound 10 µM
# 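Further: spheroids exposed to the agents for seven days before readout.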
# 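Wherever viability, T/C is given: percent viability relative to DMSO vehicle control wells taken as 100%.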
smiles,measurement,setting,value
C=CCn1c(=O)c2cnc(Nc3ccc(N4CCN(C)CC4)cc3)nc2n1-c1cccc(C(C)(C)O)n1 + CN(C)c1ccc(Nc2c3ccc(NC(=O)CCN4CCCC4)cc3nc3cc(NC(=O)CCN4CCCC4)ccc23)cc1,IC50,second compound 0.0316 µM,1.85 µM
same,IC50,second compound 0.1 µM,1.88 µM
same,IC50,second compound 0.316 µM,1.9 µM
same,IC50,second compound 1 µM,1.9 µM
same,IC50,second compound 3.16 µM,1.75 µM
same,IC50,second compound 10 µM,1.32 µM
same,"viability, T/C",[1],104%
same,"viability, T/C",[2],103%
same,"viability, T/C",[3],113%
same,"viability, T/C",[4],99.8%
same,"viability, T/C",[5],6.96%
same,"viability, T/C",[6],2.02%
same,"viability, T/C",[7],99.6%
same,"viability, T/C",[8],103%
same,"viability, T/C",[9],111%
same,"viability, T/C",[10],101%
same,"viability, T/C",[11],8.04%
same,"viability, T/C",[12],1.98%
same,"viability, T/C",[13],96.8%
same,"viability, T/C",[14],97.2%
same,"viability, T/C",[15],110%
same,"viability, T/C",[16],102%
same,"viability, T/C",[17],8.92%
same,"viability, T/C",[18],1.93%
same,"viability, T/C",[19],95.3%
same,"viability, T/C",[20],108%
same,"viability, T/C",[21],113%
same,"viability, T/C",[22],102%
same,"viability, T/C",[23],8.33%
same,"viability, T/C",[24],2.74%
same,"viability, T/C",[25],104%
same,"viability, T/C",[26],104%
same,"viability, T/C",[27],112%
same,"viability, T/C",[28],88.2%
same,"viability, T/C",[29],9.59%
same,"viability, T/C",[30],4.27%
same,"viability, T/C",[31],105%
same,"viability, T/C",[32],102%
same,"viability, T/C",[33],101%
same,"viability, T/C",[34],64.6%
same,"viability, T/C",[35],3.41%
same,"viability, T/C",[36],1.03%
COc1ncnc(C2CC2)c1-c1ncc2cnn(Cc3ccc(-c4nc(C(F)(F)F)cn4C(C)C)cc3)c2n1 + CN(C)c1ccc(Nc2c3ccc(NC(=O)CCN4CCCC4)cc3nc3cc(NC(=O)CCN4CCCC4)ccc23)cc1,IC50,second compound 0.0316 µM,> 10 µM
same,IC50,second compound 0.1 µM,> 10 µM
same,IC50,second compound 0.316 µM,> 10 µM
same,IC50,second compound 1 µM,> 10 µM
same,IC50,second compound 3.16 µM,> 10 µM
same,IC50,second compound 10 µM,5.62 µM
same,"viability, T/C",[1],103%
same,"viability, T/C",[2],97%
same,"viability, T/C",[3],108%
same,"viability, T/C",[4],98.1%
same,"viability, T/C",[5],100%
same,"viability, T/C",[6],109%
same,"viability, T/C",[7],103%
same,"viability, T/C",[8],100%
same,"viability, T/C",[9],105%
same,"viability, T/C",[10],105%
same,"viability, T/C",[11],92.7%
same,"viability, T/C",[12],107%
same,"viability, T/C",[13],103%
same,"viability, T/C",[14],102%
same,"viability, T/C",[15],105%
same,"viability, T/C",[16],100%
same,"viability, T/C",[17],92%
same,"viability, T/C",[18],106%
same,"viability, T/C",[19],93.9%
same,"viability, T/C",[20],99.5%
same,"viability, T/C",[21],104%
same,"viability, T/C",[22],92.7%
same,"viability, T/C",[23],98.3%
same,"viability, T/C",[24],101%
same,"viability, T/C",[25],102%
same,"viability, T/C",[26],98.2%
same,"viability, T/C",[27],106%
same,"viability, T/C",[28],100%
same,"viability, T/C",[29],106%
same,"viability, T/C",[30],110%
same,"viability, T/C",[31],102%
same,"viability, T/C",[32],103%
same,"viability, T/C",[33],109%
same,"viability, T/C",[34],107%
same,"viability, T/C",[35],91.7%
same,"viability, T/C",[36],8.22%
CC(C)n1c(=O)n(C)c2cnc3cc(F)c(-c4ccc(OCCCN5CCCCC5)nc4)cc3c21 + Cc1[nH]c2ccc(F)cc2c1-c1nc2c3cccnc3c3ncccc3c2[nH]1,IC50,second compound 0.0316 µM,> 10 µM
same,IC50,second compound 0.1 µM,> 10 µM
same,IC50,second compound 0.316 µM,> 10 µM
same,IC50,second compound 1 µM,> 10 µM
same,IC50,second compound 3.16 µM,> 10 µM
same,IC50,second compound 10 µM,> 10 µM
same,"viability, T/C",[1],112%
same,"viability, T/C",[2],101%
same,"viability, T/C",[3],110%
same,"viability, T/C",[4],101%
same,"viability, T/C",[5],109%
same,"viability, T/C",[6],82.4%
same,"viability, T/C",[7],104%
same,"viability, T/C",[8],101%
same,"viability, T/C",[9],109%
same,"viability, T/C",[10],105%
same,"viability, T/C",[11],110%
same,"viability, T/C",[12],89.1%
same,"viability, T/C",[13],99.8%
same,"viability, T/C",[14],110%
same,"viability, T/C",[15],106%
same,"viability, T/C",[16],111%
same,"viability, T/C",[17],105%
same,"viability, T/C",[18],85.9%
same,"viability, T/C",[19],104%
same,"viability, T/C",[20],108%
same,"viability, T/C",[21],109%
same,"viability, T/C",[22],109%
same,"viability, T/C",[23],109%
same,"viability, T/C",[24],85.5%
same,"viability, T/C",[25],102%
same,"viability, T/C",[26],107%
same,"viability, T/C",[27],110%
same,"viability, T/C",[28],104%
same,"viability, T/C",[29],105%
same,"viability, T/C",[30],62.2%
same,"viability, T/C",[31],103%
same,"viability, T/C",[32],104%
same,"viability, T/C",[33],107%
same,"viability, T/C",[34],104%
same,"viability, T/C",[35],94.9%
same,"viability, T/C",[36],61.8%

# — PubChem BioAssay AID2060488 (Molecular Pharmacology Branch, DTP, NCI, 2025)
